Reference: patent US20110212235A1, “ANTIMICROBIAL SALT SOLUTIONS FOR CHEESE PROCESSING APPLICATIONS” (priority 2006, published 2011)

Tests used:
Format in all cases: cell-based
[1] = tested on: wild type coliforms from cheese plant brine; assay: Coliforms procedure in cheese brine or buffered solution; conditions: for Coliforms count: Table 21 (sodium octanoate experiment)
Description: (§1) In the present example, cultures of various microorganisms native to actual process brines used in cheese manufacture were obtained from a cheese plant. The cultures of yeast, mold, and coliforms were grown and used to test the efficacy of various antimicrobial additives in blue cheese brines. Organism cultures included four different types of yeast (three distinct while yeast cultures and a pink yeast), a black mold culture, a coliform culture, a culture of mixed green mold and yeast that were not separated, and a culture that was identified by the cheese plant as heterofermentative lactic acid bacteria, although no actual identification of the strain was carried out.
Coliforms Procedure: • 1. Inoculate a separate tube containing 10 ml of Brain Heart Infusion (BHI) broth for each wild type coliforms 1 and 2. Incubate for 24+/−2 hours at 35° C.+/−2° C. • 2. Assume growth to be 10^9 cfu/ml. Since two cultures are being used, combine 5.5 ml of each culture added to 99 ml of cold Butterfield's Phosphate Buffered Water (PBW) to obtain 10^8 cfu/ml. • 3. Plate serial ten-fold dilutions of the culture to get the starting count of the inoculum on Violet Red Bile Agar (VRBA). • 4. Add 1 ml of the diluted cocktail to 100 ml of cold test solution. • 5. Determine the population at time 0 and 4 hours by plating serial dilutions to VRBA spread plates. • 6. Incubate the test solutions at 10° C.+/−2° C. for the duration of the experiment. • 7. Incubate the plates at 20° C.+/−2° C. for 72+/−2 hours. • 8. Count representative colonies and multiply by the dilution factor. Note: Each test solution should contain ˜10^8 cfu/ml.
(§2) The brines were treated with different concentrations of octanoic acid and then challenged with a yeast cocktail (which included the pink and 3 different white mold types), the green mold+yeast combination, and coliforms.

[2] = tested on: heterofermentative lactic acid bacteria (not identified); assay: “Lactic Bacteria” procedure in cheese brine; conditions: after 4 hours in blue cheese brine; Table 20; inoculum 1.2 × 10^7 (est)
Description: as §1
“Lactic Bacteria” Procedure: • 1. Inoculate a separate tube containing 10 ml of Brain Heart Infusion (BHI) broth for each wild type tactics 1 and 2. Incubate for 72+/−2 hours at 30° C.+/−2° C. • 2. Assume growth to be 10^9 cfu/ml. Since two cultures are being used, combine 5.5 ml of each culture added to 99 ml of cold Butterfield's Phosphate Buffered Water (PBW) to obtain 10^8 cfu/ml. • 3. Plate serial dilutions of the culture to get the starting count of the inoculum on Lactobacilli MRS Agar (MRSA). • 4. Add 1 ml of the diluted cocktail to 100 ml of cold test solution. • 5. Determine the population at time 0 and 4 hours. Plate serial dilutions using MRSA spread plates. • 6. Incubate the test solutions at 10° C.+/−2° C. for the duration of the experiment. • 7. Incubate the plates at 30° C.+/−2° C. for 72+/−2 hours. • 8. Count representative colonies and multiply by the dilution factor. Note: Each test solution should contain ˜10^8 cfu/ml.
In this experiment solutions were challenged with cultures of the black mold, the green mold/yeast combination, and the bacteria thought to be “lactic acid” bacteria. In this experiment, a brine control with no additive was neglected, but the data still indicate the strong effectiveness of the octanoic acid against yeast and mold.

black mold = assay: “Mold” procedure, black mold; conditions: after 4 hours in blue cheese brine; Table 20; inoculum 2.5 × 10^4 (est)
Description: as §1
(§3) “Mold” Procedure: • 1. From refrigerated stock mold cultures, take 1 ml from black mold dilution bottle added to 99 ml of cold Butterfield's Phosphate Buffered Water (PBW) to obtain 10^5 cfu/ml. • 2. Take 1 ml from green mold/white yeast mixture dilution bottle added to 99 ml of cold Butterfield's Phosphate Buffered Water (PBW) to obtain 10^6 cfu/ml. • 3. Plate serial dilutions of the cultures to get the starting count of the inoculum on Dichloran-Rose Bengal-Chloramphenicol Agar (DRBC). • 4. Add 1 ml of the diluted mold culture to 100 ml of cold test solution (do separately for each of the two mold cultures). • 5. Determine the population at time 0 and 4 hours. Spread plate serial dilutions to DRBC agar. • 6. Incubate the test solutions at 10° C.+/−2° C. for the duration of the experiment. • 7. Incubate the plates at 20° C.+/−2° C. for 5 days+/−2 hours. • 8. Count representative colonies and multiply by the dilution factor. Note: For black mold, each test solution should contain ˜10^3 cfu/ml. For green mold/white yeast mixture, each test solution should contain ˜10^4 cfu/ml.

[3] = tested on: green mold/white yeast mixture; assay: “Mold” procedure, green mold/white yeast mixture; conditions: for Green Mold + Yeast count: after 4 hours in blue cheese brine, Table 20, inoculum 5.8 × 10^6 (est)
Description: as §1, §3
Screening tests identified octanoic acid as a promising antimicrobial additive for salt brines. Table 16 gives results of a challenge test run on actual blue cheese and mozzarella process brine samples sent from a cheese plant. The brines were treated with different concentrations of octanoic acid and then challenged with a yeast cocktail (which included the pink and 3 different white mold types), the green mold+yeast combination, and coliforms. […] The plate counts listed parenthetically as (est) were too numerous to count and were estimated.

[4] = tested on: yeast cocktail (Raised, Rough and Flat white yeast and a pink yeast); assay: “Yeast” procedure, yeast cocktail
Excerpt: as §1, with “The cultures of yeast, mold, and coliforms were grown and used to test the efficacy of various antimicrobial additives in blue cheese brines.” left out
(§4) “Yeast” Procedure: • 1. Inoculate a separate tube containing 10 ml of Brain Heart Infusion (BHI) broth for each wild type (Raised, Rough and Flat white yeast along with a single pink yeast). Incubate for 5 days at 26° C.+/−2° C. • 2. Assume growth to be 10^7 cfu/ml. Since 4 cultures are being used, combine 2.75 ml of each culture added to 99 ml of cold Butterfield's Phosphate Buffered Water (PBW) to obtain 10^6 cfu/ml of yeast cocktail. • 3. Plate serial dilutions of the culture to get the starting count of the inoculum on Dichloran-Rose Bengal-Chloramphenicol Agar (DRBC). • 4. Add 1 ml of the diluted cocktail to 100 ml of cold test solution. • 5. Determine the population at time 0 and 4 hours. Spread plate serial dilutions to DRBC agar. • 6. Incubate the test solutions at 10° C.+/−2° C. for the duration of the experiment. • 7. Incubate the plates at 20° C.+/−2° C. for 5 days+/−2 hours. • 8. Count representative colonies and multiply by the dilution factor. Note: Each test solution should contain ˜10^4 cfu/ml.
as §2

White Yeast = assay: Yeast challenge, white yeast
Description: as §4
(§5) In order to determine if the effect of the additive was repeatable, more challenge tests were run on samples of process brine. […] In this test the solutions were challenged with two distinct yeast (a white and a pink) types and coliforms from the samples sent by the cheese plant.

Pink Yeast = assay: Yeast challenge, pink yeast
Description: as §4, §5

[5] = tested on: wild type coliforms from cheese plant brine; assay: Coliforms procedure in cheese brine or buffered solution; conditions: after 4 hours in mozzarella cheese brine
[6] = tested on: Uncharacterized microorganisms cultured from raw ground beef; assay: Total plate count challenge of 24% NaCl brine with ground beef organisms; conditions: after 4 hours in 24% NaCl brine at −5° C.
Description: Tests were run to determine the effectiveness of formulas against organisms other than L. monocytogenes. […] The test solutions were inoculated with the ground beef organism culture and incubated for 4 hours at −5° C. before plating.

[7] = after 4 hours at 10° C. in blue cheese brine, Table 16
[8] = after 4 hours in blue cheese brine, Table 18
[9] = after 4 hours in blue cheese brine
[10] = after 4 hours in mozzarella cheese brine, Table 17
[11] = after 4 hours in blue cheese brine, Table 21 (sodium octanoate experiment)
[12] = after 4 hours in mozzarella cheese brine, Table 19
[13] = Table 17, (est) = too numerous to count, estimated

Compound: CCCCCCCC(=O)O [500 ppm octanoic acid, octanoic acid]
- Coliform count [1, 7]: <10 cfu/mL
- Coliform count [1, 8]: <10 cfu/mL
- Coliforms count [1, 9]: <10 cfu/mL
- “Lactics” count [2]: <1 cfu/mL
- Black Mold count (black mold): <10 cfu/mL
- Yeast + Mold count [3, 7]: <10 cfu/mL
- Green Mold + Yeast count [3]: <10 cfu/mL
- Yeast + Mold count [3, 10]: 5.6 × 10^3 cfu/mL
- Yeast Cocktail count [4, 7]: <10 cfu/mL
- Yeast Cocktail count [4, 10]: <10 cfu/mL
- White Yeast count (White Yeast; [8]): <10 cfu/mL
- White Yeast count (White Yeast; [11]): <10 cfu/mL
- White Yeast count (White Yeast; [12]): <10 cfu/mL
- Pink Yeast count (Pink Yeast; [8]): <10 cfu/mL
- Pink Yeast count (Pink Yeast; [11]): <10 cfu/mL
- Pink Yeast count (Pink Yeast; [12]): 20 cfu/mL
- Coliform count [5, 13]: 3.5 × 10^4 cfu/mL
- Coliform count ([5]; Table 19): 3.8 × 10^3 cfu/mL

Compound: CCCCCCCC(=O)O [250 ppm octanoic acid, octanoic acid]
- Coliform count [1, 7]: <10 cfu/mL
- Coliform count [1, 8]: <10 cfu/mL
- Coliforms count [1, 9]: <10 cfu/mL
- “Lactics” count [2]: <10 cfu/mL
- Black Mold count (black mold): <10 cfu/mL
- Yeast + Mold count [3, 7]: <10 cfu/mL
- Green Mold + Yeast count [3]: <10 cfu/mL
- Yeast + Mold count [3, 10]: 6.1 × 10^4 cfu/mL
- Yeast Cocktail count [4, 7]: <10 cfu/mL
- Yeast Cocktail count [4, 10]: 200 cfu/mL
- White Yeast count (White Yeast; [8]): <10 cfu/mL
- White Yeast count (White Yeast; [11]): <10 cfu/mL
- White Yeast count (White Yeast; [12]): <10 cfu/mL
- Pink Yeast count (Pink Yeast; [8]): <10 cfu/mL
- Pink Yeast count (Pink Yeast; [11]): <10 cfu/mL
- Pink Yeast count (Pink Yeast; [12]): <10 cfu/mL
- Coliform count [5, 13]: 1.7 × 10^6 cfu/mL
- Coliform count ([5]; Table 19): 3.8 × 10^3 cfu/mL

Compound: CCCCCCCC(=O)O [62.5 ppm octanoic acid, octanoic acid]
- Coliforms count [1, 9]: 3.8 × 10^4 cfu/mL
- “Lactics” count [2]: 1.5 × 10^5 cfu/mL
- Black Mold count (black mold): <10 cfu/mL
- Green Mold + Yeast count [3]: 1.0 × 10^4 cfu/mL
- White Yeast count (White Yeast; [11]): 90 cfu/mL
- Pink Yeast count (Pink Yeast; [11]): <10 cfu/mL

Compound: CCCCCCCC(=O)O [125 ppm octanoic acid, octanoic acid]
- Coliform count [1, 7]: 10 cfu/mL
- Coliform count [1, 8]: <10 cfu/mL
- Coliforms count [1, 9]: <10 cfu/mL
- “Lactics” count [2]: 2.0 × 10^3 cfu/mL
- Black Mold count (black mold): <10 cfu/mL
- Yeast + Mold count [3, 7]: 20 cfu/mL
- Green Mold + Yeast count [3]: <10 cfu/mL
- Yeast + Mold count [3, 10]: 4.1 × 10^5 cfu/mL
- Yeast Cocktail count [4, 7]: <10 cfu/mL
- Yeast Cocktail count [4, 10]: 6.0 × 10^3 cfu/mL
- White Yeast count (White Yeast; [8]): <10 cfu/mL
- White Yeast count (White Yeast; [11]): <10 cfu/mL
- White Yeast count (White Yeast; [12]): 60 cfu/mL
- Pink Yeast count (Pink Yeast; [8]): <10 cfu/mL
- Pink Yeast count (Pink Yeast; [11]): <10 cfu/mL
- Pink Yeast count (Pink Yeast; [12]): <10 cfu/mL
- Coliform count [5, 13]: ~3.0 × 10^6 (est) cfu/mL
- Coliform count ([5]; Table 19): 1.6 × 10^4 cfu/mL

Compound: nonylphenolethoxylate [800 ppm nonylphenolethoxylate]
- Total plate count [6]: 40 cfu/mL
